Measurements taken from the NIST ThermoML archive (doi:10.1016/j.jct.2016.09.010).

Assay: xn = mol fraction of the nth substance listed
Details: 100 kPa, Liquid; for speed of sound: Frequency=2 MHz, Linear variable-path acoustic interferometer; for mass density: Vibrating tube method

CCNc1ccccc1 [N-ethylaminobenzene] + CCOC(=O)C(C)O
Details	mass density, 303.15 K [kg/m3]	mass density, 308.15 K [kg/m3]	mass density, 313.15 K [kg/m3]	mass density, 318.15 K [kg/m3]	speed of sound, 303.15 K [m/s]	speed of sound, 308.15 K [m/s]	speed of sound, 313.15 K [m/s]	speed of sound, 318.15 K [m/s]
x2 = 0	952.41	947.69	942.95	938.23	1497	1481	1464	1448
x2 = 0.1195	960.29	955.52	950.71	945.92	1471.1	1455.4	1438.5	1422.6
x2 = 0.2183	966.93	962.08	957.2	952.34	1449.5	1433.6	1416.6	1400.6
x2 = 0.3177	973.69	968.76	963.8	958.86	1427.2	1411.2	1394	1377.7
x2 = 0.424	981.03	976.02	970.97	965.95	1402.7	1386.6	1369.2	1352.7
x2 = 0.5225	987.95	982.86	977.73	972.63	1379.6	1363.4	1345.8	1329.1
x2 = 0.6209	994.95	989.79	984.58	979.4	1355.9	1339.6	1321.8	1305
x2 = 0.726	1002.55	997.31	992.01	986.75	1330	1313.6	1295.6	1278.6
x2 = 0.8128	1008.91	1003.61	998.24	992.91	1308.3	1291.7	1273.6	1256.4
x2 = 0.9074	1015.91	1010.52	1005.09	999.68	1284.5	1267.6	1249.2	1231.8

CCOC(=O)C(C)O (stereo not drawn) [DL-ethyl lactate] + Nc1ccccc1
Details	mass density, 303.15 K [kg/m3]	mass density, 308.15 K [kg/m3]	mass density, 313.15 K [kg/m3]	mass density, 318.15 K [kg/m3]	speed of sound, 303.15 K [m/s]	speed of sound, 308.15 K [m/s]	speed of sound, 313.15 K [m/s]	speed of sound, 318.15 K [m/s]
x1 = 0.0788	1014.12	1010.12	1005.75	1001.3	1588.7	1570.3	1550.3	1531.4
x1 = 0.1638	1015.39	1011.23	1006.72	1002.15	1560.8	1542.5	1522.7	1504
x1 = 0.2514	1016.56	1012.23	1007.57	1002.88	1531.4	1513.2	1493.5	1474.8
x1 = 0.3445	1017.64	1013.15	1008.36	1003.55	1499.5	1481.4	1461.8	1443.2
x1 = 0.4393	1018.65	1014	1009.09	1004.17	1466.5	1448.5	1429	1410.5
x1 = 0.5461	1019.69	1014.87	1009.83	1004.79	1428.6	1410.8	1391.4	1373.1
x1 = 0.6484	1020.59	1015.62	1010.46	1005.31	1391.7	1374.1	1354.9	1336.8
x1 = 0.7644	1021.47	1016.33	1011.05	1005.79	1349.3	1331.9	1312.9	1295
x1 = 0.8737	1022.17	1016.88	1011.49	1006.13	1308.3	1291.1	1272.3	1254.7
x1 = 1	1022.88	1017.39	1011.83	1006.31	1261.1	1243.8	1224.8	1206.9

CNc1ccccc1 [N-methylaniline] + CCOC(=O)C(C)O
Details	mass density, 303.15 K [kg/m3]	mass density, 308.15 K [kg/m3]	mass density, 313.15 K [kg/m3]	mass density, 318.15 K [kg/m3]	speed of sound, 303.15 K [m/s]	speed of sound, 308.15 K [m/s]	speed of sound, 313.15 K [m/s]	speed of sound, 318.15 K [m/s]
x2 = 0	978.2	973.53	969.92	964.9	1547	1526.9	1511	1491.4
x2 = 0.1018	983.17	978.45	974.67	969.62	1520.1	1500.8	1485	1466.1
x2 = 0.1939	987.58	982.78	978.81	973.71	1495.5	1476.5	1460.5	1441.7
x2 = 0.2814	991.69	986.81	982.67	977.52	1471.8	1452.9	1436.6	1417.8
x2 = 0.3934	996.86	991.88	987.51	982.3	1440.7	1422.1	1405.4	1386.7
x2 = 0.491	1001.27	996.21	991.65	986.39	1413.1	1394.7	1377.7	1359.2
x2 = 0.5902	1005.66	1000.52	995.77	990.46	1384.5	1366.4	1349.1	1330.8
x2 = 0.6894	1009.96	1004.74	999.8	994.45	1355.5	1337.7	1320.1	1302
x2 = 0.7851	1014.03	1008.74	1003.62	998.22	1326.8	1309.5	1291.7	1273.8
x2 = 0.8937	1018.56	1013.19	1007.86	1002.41	1293.5	1276.4	1258.3	1240.7
